Data on 84 compounds can be found in a melting point compilation (Tetko et al.; mined from patent text by program, amines drawn as free bases though some values may be those of a salt).

Bounds are passed on as bounds.

A word on the melting point: it is the temperature of the solid-liquid transition. The compound `CCOC(=O)CN(CC(=O)OCC)C(=O)c1cc(OCCCCCCCCCCCCOc2ccccc2)ccc1OCc1ccccc1` registered a melting point of 49 to 50 °C.

`CCCCCc1c(C(C)C)cc(C(C)C)c(C(C)=O)c1-c1ccc(F)cc1` gave a melting point of 123 to 124 °C.

Compound `CCCc1c(OCC2COc3c(F)cc(CC(=O)O)cc32)ccc(C(C)=O)c1O` (centres undefined) showed a melting point of 133 to 135 °C.

As to `O=c1oc2ccccc2c2c1CN(CCN1CC3CCCC(C3)C1)CC2`, the melting point fell in the range of 129 to 130 °C.

For `Cc1ccc(Cl)c(C(=O)c2ccc(Cl)cc2)c1Cl`, the melting point lay in the range of 132 to 136 °C.

With `Cc1nc2cccc(N)c2c(=O)n1[C@@]1(C)CCC(=O)NC1=O`, the melting point lay in the range of 295 to 297 °C.

For `CN(C)c1ccc(C2OC(C)(C)N=C2c2ccccc2)cc1` (centres undefined), the melting point worked out at 123 °C.

For the compound `COc1cc2ccc(C)cc2c(C(C)C)c1OC`, the melting point lay in the range of 62 to 63 °C.

With `CC(C)c1ccc(OC(C)(Cc2ccc(OCCNC(=O)c3ccc(OCC(F)(F)C(F)F)nc3)cc2)C(=O)O)cc1` (centres undefined), the melting point was 173 to 175 °C.

Compound `NC(=O)N(O)Cc1sccc1Br` displayed a melting point of 138 to 140 °C.

Consider `Cn1c(=O)c2nc(-c3ccc(/C=C/C(=O)O)cc3)[nH]c2n(Cc2ccccc2)c1=O`, for which the melting point was greater than 300 °C.

Turning to `CC1(CNC(=O)OC(C)(C)C)CN(C(c2ccccc2)c2ccccc2)C1`, the melting point is 106 to 107 °C.

With `C(=C\c1nc(COc2ccc(-n3ccnc3)cc2)co1)/c1ccccc1`, the melting point fell in the range of 160 to 162 °C.

`N#Cc1cnn2c1N(C(=O)CN1CCN(Cc3ccccc3C(F)(F)F)CC1)CC=C2c1cccc(C(F)(F)F)c1` had a melting point of 169 to 171 °C.

In turn, `CC(=O)c1cc2c(cc1NC(=O)C(O)(CC(C)(C)c1ccccc1)C(F)(F)F)COC2=O` (centres undefined) gave a melting point of 195 to 199 °C.

For the compound `CCOc1cc2c(c3c1OC(C)(C)C3)C(c1cccc(C(=O)NCC(N)=O)c1)=NC(C)(C)C2`, the melting point is 127 to 128 °C.

`CCOC(=O)c1nccn1C1Cc2ccc(Cl)cc2C1=O` (centres undefined) gave a melting point of 180 °C.

Turning to `CCOc1ccc(OC)c([N+](=O)[O-])c1`, the melting point was 33 to 36 °C.

`CCOC(=O)c1cc(=O)c2ccc(O)cc2o1` returned a melting point of 221 to 223 °C.

On to `Nc1ccccc1C(=O)Nc1cccnc1Cl`, for which the melting point lay in the range of 172 to 175 °C.

In turn, `CS(=O)(=O)Nc1cc(C(c2cc(F)ccc2F)S(=O)(=O)c2ccc(Cl)cc2)c(F)cn1` (centres undefined) came in with a melting point of 217 to 219 °C.

`CCOC(=O)c1c(Cn2cncn2)nc2sc(C)c(C)c2c1-c1ccc2c(c1)OCO2` gave a melting point of 109 to 110 °C.

Compound `CCCCCCc1c(Br)c(-c2ccccc2)n(-c2ccc(C)cc2)c1-c1ccccc1` came in with a melting point of 86 to 89 °C.

`COc1ccc(C(=O)Nc2ccc(Cl)c(Cl)c2)cc1NC(=S)Nc1cc(Cl)cc(Cl)c1` had a melting point of 189 to 191 °C.

On to `CC(C)C(=O)C(C)(C)C1(O)C(=O)N(Cc2ccc(Cl)cc2)c2ccccc21` (centres undefined), for which the melting point was in the range of 105 to 107 °C.

`CC(C)(C)[Si](C)(C)OC(CCCNCCc1ccccc1)COc1ccc2c(=O)cc(-c3ccccc3)oc2c1` (centres undefined) gave a melting point of 89 to 91 °C.

For the compound `CCOC(=O)c1sc(Oc2ccc(OCc3ccc4ccccc4n3)cc2)c2c1CCc1cnn(C)c1-2`, the melting point fell in the range of 269 to 270 °C.

For the compound `CCn1c(C)c(C2(N(c3ccccc3)c3ccccc3)OCc3cccnc32)c2ccccc21` (centres undefined), the melting point lay within 132 to 136 °C.

Compound `O=C(O)Cc1ccc(-c2cn3cccnc3n2)cc1` returned a melting point of 264 to 265 °C.

`CCNc1c(O)ccc(N(CCO)CCO)c1[N+](=O)[O-]` gave a melting point of 115 °C.

`NC(=O)c1nnn(Cc2cc(Cl)c(Sc3ccc(Cl)cc3)c(Cl)c2)c1N` showed a melting point of 180 to 182 °C.

`COc1cc2nc(-c3cc(C)c(O)c(C)c3)[nH]c(=O)c2c(OC)c1CN1CCOCC1`: the melting point was 237 to 239 °C.

For the compound `CN1Cc2c(C#C[Si](C)(C)C)ncn2-c2cccc(Cl)c2C1=O`, the melting point was in the range of 186 to 187 °C.

Turning to `CC(C)=CCOc1ccc(C2=C(CC(C)C)C(=O)NC2=O)cc1`, the melting point was 110 to 111 °C.

The compound `Nc1nc2[nH]c(CCC#Cc3cscc3C(=O)N[C@@H](CCC(=O)O)C(=O)O)cc2c(=O)[nH]1` displayed a melting point of 181 to 182 °C.

The compound `CC1OC(Sc2ccccc2)C(OCc2ccccc2)C(OC(=O)c2ccccc2)C1OC(=O)c1ccccc1` (centres undefined) registered a melting point of 98 to 100 °C.

Consider `CCOC(=O)C(=Cc1ccc(-c2cccc(NC)c2)cc1)OCC`, for which the melting point was determined as 52 °C.

`CC(C)c1nc(CO)n(Cc2cccnc2)c1Sc1cc(Cl)cc(Cl)c1` returned a melting point of 136 to 139 °C.

Regarding `Cn1nc(-c2ccc(S(=O)(=O)N3CCn4c(c(C(N)=O)c(Cl)c4-c4ccccc4)C3)s2)cc1C(F)(F)F`, the melting point is 159 to 161 °C.

For `COC(=O)/C=C/C1=C(c2ccc(OC)cc2)c2ccc(OC)cc2CC1`, the melting point lay in the range of 116 to 118 °C.

For `O=C(NCC1Cc2ccc3ccccc3c2O1)OCc1ccccc1` (centres undefined), the melting point was 110 to 112 °C.

With `CCCCC1Oc2cc(C(=O)OC)ccc2NC1=O` (centres undefined), the melting point was in the range of 139 to 140 °C.

Take `CCCC(C)(c1ccc(O)cc1)c1ccc(O)cc1`: the melting point fell in the range of 151 to 152 °C.

Regarding `CCCNC(=S)NS(=O)(=O)c1cc2c(cc1OC)OCCC2CNC(=O)N1CC(C)=C(CC)C1=O` (centres undefined), the melting point was in the range of 96 to 98 °C.

Compound `CCCCOc1cc(-c2cc3ccccc3[nH]2)ccc1OCC` displayed a melting point of 139 °C.

Consider `O=C(O)Cc1ccc(C(=O)O)cc1`, for which the melting point lay in the range of 235 to 237 °C.

The compound `Cn1c(C=NO)cnc1[N+](=O)[O-]` showed a melting point of 203 to 205 °C.

Regarding `Cc1nc(N)c2nc(C)n(CCCNC(=O)N3CCOCC3)c2c1C`, the melting point lay in the range of 129 to 130 °C.

As for `CCN(CCO)Cc1cc(Nc2nc(Nc3cc4c(cc3OC)CCN(CC(=O)N(C)C)CC4)ncc2Cl)ccc1F`, the melting point was in the range of 71 to 75 °C.

Regarding `CC(=O)OCC1OC(n2cc(Cc3ccc(Br)cc3)c3c(C)cccc32)C(OC(C)=O)C(OC(C)=O)C1OC(C)=O` (centres undefined), the melting point fell in the range of 190 to 192 °C.

`Cc1cn(S(C)(=O)=O)c2c1C(=O)CC(c1ccccc1Cl)C2` (centres undefined) came in with a melting point of 167 to 168 °C.

For the compound `CN(C)Nc1nc(Cl)nc2c1ncn2C1OC(CCl)C(O)C1O` (centres undefined), the melting point fell in the range of 188 to 189 °C.

`CCOC(=O)CC[C@H](NC(=O)c1ccc(CCCCc2c(N)nc(N)nc2O)cc1)C(=O)OCC` came in with a melting point of 75 to 76 °C.

For the compound `COC(=O)[C@@H]1C[C@@H](Br)C(=O)[C@@H]2[C@@]3(C)C[C@@H](c4ccoc4)OC(=O)[C@H]3CC[C@]21C`, the melting point fell in the range of 170 to 173 °C.

For `COc1ccc(C(=O)C(CCC(C)=O)c2ccc(OC)cc2)cc1` (centres undefined), the melting point is 62 to 65 °C.

In turn, `CC1SC(=O)NN=C1c1cccc([N+](=O)[O-])c1` (centres undefined) came in with a melting point of 169 to 172 °C.

As for `COc1ccc(C(=O)c2ccc(OCc3nc(-c4ccccc4)oc3C)cc2C)c(O)c1`, the melting point was 109 to 110 °C.

Compound `CN1CCN(C(=O)c2ccc(-c3cnc4c(c3)N(Cc3cc(F)ccc3F)CC(C)(C)N4)cc2)CC1` had a melting point of 191 to 192 °C.

Turning to `COC(=O)Cc1cccc(CCC(CO)n2cnc(C(N)=O)c2)c1` (centres undefined), the melting point was 138 to 141 °C.

`NC(=O)C(Br)c1c(Cl)cc([N+](=O)[O-])cc1Cl` (centres undefined) yielded a melting point of 195 to 197 °C.

For `O=C(O)c1ncn2c1[C@@H]1CCN1C(=O)c1ccccc1-2`, the melting point turned out to be 232 °C.

`C=C(CC(=O)Nc1cc(Cl)cc(Cl)c1)C(=O)OCCCC`: the melting point was 69.5 °C.

As for `O=[N+]([O-])c1ccccc1-c1cc(F)c(F)c(F)c1`, the melting point was found to be 79 °C.

`Cc1cc(C)c2c(c1C)OC1(CCN(Cc3ccccc3)CC1)C2c1ccc(C(C)C)cc1` (centres undefined): the melting point was 125 to 128 °C.

Turning to `COC(=O)C1=C(O)c2cc(OC)ccc2S(=O)(=O)N1`, the melting point was determined as 183 °C.

The compound `CCOC(=O)c1ccc(C=C(C)c2ccc3c(c2)OCCC3(C)C)cc1` displayed a melting point of 48 to 50 °C.

`CCOCCOC(=O)C(=O)Nc1nc(-c2cc3ccc(O)cc3oc2=O)cs1` showed a melting point of 217 to 218 °C.

Turning to `Cc1nn(-c2c(Cl)cc(C(F)(F)F)cc2Cl)c(C)c1C=NC(C#N)=C(N)C#N`, the melting point was in the range of 237 to 240 °C.

Turning to `CCCCCCCCCCCCCCNC(=O)Oc1ccc([N+](=O)[O-])cc1OC(=O)NCCCCCCCCCCCCCC`, the melting point lay in the range of 100 to 104 °C.

On to `C=CCOc1ccc(C(=O)C=Cc2cc(OC)cc(OC)c2C)cc1`, for which the melting point was in the range of 123 to 124 °C.

The compound `COC1=C(OC)C(=O)C2=C(CC(CCCCCCCC(=O)O)(C(=O)O)C2)C1=O` displayed a melting point of 119 to 123 °C.

Regarding `COc1ccccc1N1CCN(CCCCN2CCN(c3ccccc3)C2=O)CC1`, the melting point fell in the range of 94 to 95 °C.

Take `Cc1nc2c(C)cccn2c(=O)c1CCN1CCC(c2noc3cc(F)ccc23)CC1`: the melting point was 200 °C.

Compound `CC1(C)Oc2cc(Br)sc2[C@@H](N2CCCCC2=O)[C@@H]1OCc1ccccc1` (relative stereo) returned a melting point of 146 to 147 °C.

On to `CNC1=NS(=O)(=O)N=C1NCCCOc1cccc(CN2CCCCC2)c1`, for which the melting point is 182 to 184 °C.

The compound `O=C(c1ccccn1)c1cnn2c(-c3cccnc3)ccnc12` yielded a melting point of 216 to 218 °C.

In turn, `COc1ccc(CCNC(=O)c2ccc3n2Cc2ccccc2N(C(=O)c2ccc(-c4ccccc4C)c(C)c2)C3)cc1OC` displayed a melting point of 130 to 136 °C.

Regarding `CCN(CCCCc1c[nH]c2ccc(F)cc12)C1COc2c(F)ccc(C(N)=O)c2C1` (centres undefined), the melting point was 110 °C.

`CCO[C@@H](Cc1ccc(OCCc2nc(-c3ccc(C(F)(F)F)cc3)oc2C)c2ccsc12)C(=O)O` had a melting point of 126 to 128 °C.

For the compound `NC(=O)c1ccnc(OCc2nc3cc(Cl)ccc3s2)c1`, the melting point fell in the range of 220 to 222 °C.

`CCOC(=O)C1(O)C(=O)N2CCOc3cc(Cl)cc1c32` (centres undefined) gave a melting point of 186 to 187 °C.

As to `C(#Cc1cccnc1)c1ccccc1`, the melting point lay in the range of 42 to 43 °C.

Compound `COc1cc2c(cc1O)CCN(Cc1cccc(C(C)=O)c1)C2` gave a melting point of 132 to 134 °C.

Compound `O=C(Nc1ccccc1)Nc1cccc(-c2ccc(C(=O)N3CCN4CCC3CC4)o2)c1` registered a melting point of 125 to 130 °C.
